Test results from paper PMC10871122, “Synthesis and In Vitro Evaluation as Potential Anticancer and Antioxidant Agents of Diphenylamine-Pyrrolidin-2-one-Hydrazone Derivatives” (International Journal of Molecular Sciences, 2023).

Tests used:
[1] = system: human melanoma IGR39 cell line; assay: MTT cell viability assay, melanoma IGR39; type: cell-based
Text: (§1) The human malignant melanoma cell line IGR39, human triple-negative breast cancer MDA-MB-231, and human pancreatic carcinoma cell line Panc-1 were obtained from the American Type Culture Collection (ATCC, Manassas, VA, USA). Human foreskin fibroblasts (HF) CRL-4001 were originally obtained from ATCC and kindly provided by Prof. Helder Santos (University of Helsinki, Finland). Primary prostate carcinoma PPC-1 cell line was kindly provided by Prof. Tambet Teesalu (University of Tartu, Estonia). All cell lines were cultured in Dulbecco’s Modified Eagle’s GlutaMAX medium (Gibco (Carlsbad, CA, USA)), supplemented with 10,000 U/mL penicillin, 10 mg/mL streptomycin (Gibco), and 10% fetal bovine serum (Gibco). Cell cultures were grown at 37 °C in a humidified atmosphere containing 5% CO2. They were used until the passage of 20.
(§2) The effect of synthesized compounds on cell viability was studied using 3-(4,5-dimethylthiazol-2-yl)-2,5-diphenyltetrazolium bromide (MTT; Sigma-Aldrich Co., St Louis, MO, USA) assay, as described elsewhere. To summarize, the cells were seeded in triplicates in 96-well Corning plates (IGR39, MDA-MB-231, Panc-1 and PPC1: 4 × 10^3 cells/well; HF: 5 × 10^3 cells/well). The cells were treated with 100 μM of tested compounds after 24 h of incubation. After 72 h, the MTT reagent was added and the formazan crystals that had formed were dissolved in DMSO (Sigma-Aldrich Co., St. Louis, MO, USA). The absorbance was determined with a multidetection microplate reader at 570 and 630 nm.
(§3) The compound serial dilutions ranging from 50 µM to 1.56 µM were introduced to the cells. The Hill equation was used to calculate the EC50 value, or the concentration of a compound that results in a 50% reduction in the metabolic activity of cells.

[2] = system: prostate carcinoma PPC-1 cell line; assay: MTT cell viability assay, prostate carcinoma PPC-1; type: cell-based, human; conditions: Homo sapiens; MTT, 72 h, PPC-1
Text: as §1, §2, §3

[3] = system: human triple-negative breast cancer MDA-MB-231 cell line; assay: MTT cell viability assay, MDA-MB-231; type: cell-based; conditions: 72 h
Text: as §1, §2, §3

[4] = system: human pancreatic carcinoma Panc-1 cell line; assay: MTT cell viability assay, Panc-1; type: cell-based
Text: as §1, §2, §3

IGR39 cell migration = assay: 'Wound healing' migration assay, IGR39; type: cell-based, human; conditions: 48 h of incubation; control 'wound' completely closed
Description: (§4) Cancer cells were seeded at a density of 6 × 10^4 cells/well in 24-well plates. After 48 h of incubation, a 100 µL pipette tip was used to make the scratch in each well. Following a single PBS wash, the fresh medium containing 2 and 5 µM of compounds 5, 6, 13, and 14 was added to the cells. As a negative control, medium containing 0.1% DMSO was employed.

PPC-1 cell migration = assay: 'Wound healing' migration assay, PPC-1; type: cell-based, human; conditions: 72 h of incubation
Description: as §4

Panc-1 cell migration = assay: 'Wound healing' migration assay, Panc-1; type: cell-based, human; conditions: 72 h of incubation
Description: as §4

[5] = system: IGR39 spheroids (cancer cells with fibroblasts 1:1); assay: 3D culture: IGR39 spheroid size and viability (WST-1); type: cell-based, human; conditions: WST-1, end of experiment
Description: Spheroids were made of cancer cells combined with fibroblast in a 1:1 ratio to better represent the real tumor microenvironment.
The magnetic 3D Bioprinting method was utilized to form cancer cell spheroids as described elsewhere. In short, the cells at 70% confluency were incubated with Nanoshuttle (n3D Biosciences, Inc., Houston, TX, USA) for 8 h. After that, the cells were trypsinized, centrifuged and seeded into ultra-low attachment 96-well plate at a ratio of 1.5 × 10^3 cancer cells and 1.5 × 10^3 human fibroblasts/well. The plate was incubated for two days at 37 °C in a humidified atmosphere on a magnetic drive. Next, the medium with 5 and 10 µM of selected compounds was added. Photos of spheroids were taken every two days using an Olympus IX73 inverted microscope (OLYMPUS CORPORATION, Tokyo, Japan), and analysis of spheroid size was performed using ImageJ, version 1.53o (National Institutes of Health, Bethesda, MD, USA) and Microsoft Office Excel 2016 software (Microsoft Corporation, Redmond, WA, USA).
On the last day of experiment, 10 µL of WST-1 reagent (Sigma-Aldrich Co, St. Louis, MO, USA) was added to each well. Following 10-h incubation, 50 µL of liquid from each well was moved to another 96-well plate and the absorbance was measured at 460 and 530 nm.

[6] = Ferric reducing antioxidant power (FRAP) assay; conditions: absorbance at 593 nm
Text: The ferric reducing antioxidant power (FRAP) assay was used to evaluate the antioxidant potential of new compounds 2–17. Antioxidant assays are based on determining reduction power reactions (e.g., reduction Fe^3+ to Fe^2+) or scavenging free radicals (DPPH, ABTS). The FRAP assay is based on the method of single electron transfer (SET), measuring the reduction in the complex of ferric ions (Fe^3+)-ligand to the blue ferrous complex (Fe^2+). This method uses 2,4,6-tripyridyl-s-triazine (TPTZ) as the linking ligand to the iron. The antioxidant activity of the synthesized compounds was compared with that of the well-known antioxidant protocatechuic acid. […] PCA is a building block for pharmaceuticals and is widely used to produce many medicinal products such as veratridine (sodium channel inactivation inhibitor), erlotinib (antineoplastic), Picatin II (treatment of hepatitis B), itopride hydrochloride (gastrointestinal motility drug). PCA can also cause the induction of apoptosis of human leukemia cells. Moreover, the antioxidant activity of PCA is based on the reduction in free radical formation via the up-regulation of genes encoding enzymes with neutralizing activities.
Antioxidant activity was determined as an increase in absorbance at 593 nm, and the results were expressed as of Fe^2+ μmol/L and in relation to antioxidants, and protocatechuic acid, as positive control. The FRAP reagent contained 2.5 mL of 10 mM TPTZ solution in 40 mM HCl as well as 2.5 mL of FeCl3 (20 mM) and 25 mL of acetate buffer (0.3 M, pH = 3.6). Then, 100 μL of analyzed compounds (20 mM) were mixed with 3 mL of the FRAP reagent. The absorbance of the reaction mixture was measured spectrophotometrically at 593 nm using a UV-1280 UV-VIS spectrophotometer (Shimadzu Corporation, Kyoto, Japan). To compose the calibration curve, five concentrations of FeSO4·7H2O (5, 10, 15, 20, 25 μM) were used, and the absorbance was measured as a sample solution.

[7] = system: tested cancer cell lines (IGR39, PPC-1, MDA-MB-231, Panc-1); assay: MTT cell viability assay, statements on the tested cancer cell lines together; type: cell-based, human; conditions: Homo sapiens; against IGR39 and PPC-1 cell lines
Description: as §2, §3

O=C(NN=Cc1ccc([N+](=O)[O-])s1)C1CC(=O)N(c2ccc(Nc3ccccc3)cc2)C1 (stereo not shown) [Compound 13, N′-((5-nitrothiophen-2-yl)methylene)-5-oxo-1-(4-(phenylamino)phenyl)pyrrolidine-3-carbohydrazide]
effect on cell viability compared among the cell lines ([1]; 100 µM, 72 h, MTT): strongest effect on melanoma cells
EC50 ([1]; Homo sapiens, IGR-39, MTT, 72 h, IGR39): 2.5 ± 0.46 µM
selectivity towards cancer cells compared to fibroblasts ([1]; IGR39 (melanoma) vs fibroblasts): 2.8
EC50 [2]: 3.63 ± 0.45 µM
cell viability compared to the control (inhibited up to) ([3]; 100 µM): ~ 9%
EC50 ([3]; Homo sapiens, MDA-MB-231): 5.1 ± 0.8 µM
cell viability compared to the control (inhibited up to) ([4]; 100 µM, 72 h, MTT): ~ 9%
EC50 ([4]; Homo sapiens, MTT, 72 h, Panc-1): 5.77 ± 0.8 µM
selectivity towards cancer cells compared to fibroblasts ([4]; Panc-1 vs fibroblasts): 1.2
'wound' area (IGR39 cell migration): 15.8 ± 8.8%
'wound' area compared to the control (times larger) (PPC-1 cell migration): ~ 24 times
'wound' area compared to the control (times larger) (Panc-1 cell migration): 7.5 times
effect on spheroid viability compared to the control [5]: statistically significant effect
FRAP reducing power (Fe^2+) [6]: 103.95 µmol/L
EC50 [7]: 2.5 to 20.2 µM
melting point: 235 to 236 °C
